The text below walks through data of patent publication US20260015364A1, “PIPERAZINE BRIDGE-SUBSTITUTED HETEROCYCLIC PYRIMIDINE COMPOUND” (MEDSHINE DISCOVERY INC., priority 2022, published 2026).

This data set in a line: In vivo pharmacokinetic experiment in CD-1 mice. As for the experimental part:
This experiment aims to investigate the pharmacokinetic properties of the compounds of the present disclosure administrated by oral and intravenous injection in CD-1 mice.
The test compound was mixed with 10% dimethyl sulfoxide+90% (10% hydroxypropyl-β-cyclodextrin (HP-β-CD) aqueous solution), vortexed, and sonicated to prepare 0.6, 3.0, and 10.0 mg/mL clear solutions, respectively. Male CD-1 mice aged 7 to 10 weeks were selected and intravenously injected (i.v.) with a solution of the candidate compound at a dose of 3 mg/kg (administration concentration of 0.6 mg/mL). The solution of the candidate compound was administered orally (p.o.) at a dose of 30 mg/kg (administration concentration of 3.0 mg/mL) or 100 mg/kg (administration concentration of 10.0 mg/mL). Whole blood was collected for a certain period of time and prepared into plasma. The drug concentration was analyzed by the LC-MS/MS method, and the pharmacokinetic parameters were calculated using Phoenix WinNonlin software (Pharsight, USA).

The mark [1] stands for this setting: male, mouse, iv, 3 mg/kg, i.v. 3 mpk, plasma.
Where [2] appears, read: male, mouse, po, 30 mg/kg, p.o. 30 mpk, plasma.
Setting [3] is: male, mouse, po, 100 mg/kg, p.o. 100 mpk, plasma.

In general, AUC(0-inf) refers to the area under the concentration-time curve extrapolated to infinity. Higher therefore signals high exposure. The AUC(0-t) is exposure summed from dosing to a finite time, without extrapolation to infinity. The low end stands for low exposure, the high end for high exposure. A word on the Vd: it is the apparent volume that relates the amount in the body to the concentration in plasma or blood. As usually defined, the clearance is the rate of elimination divided by the concentration. The half-life is how long it takes for the measured level to halve. The low end stands for rapid decline, the high end for slow decline. For orientation: Cmax means the maximum level reached in the sampled fluid or tissue. Usually Tmax stands for the time from dosing to the highest level. For `C#Cc1c(F)ccc2cc(N)cc(-c3ncc4c(N5CC6CCC(C5)N6)nc(OC[C@@]56CC(=C)CN5C[C@@H]5C[C@@H]56)nc4c3F)c12` (single isomer, unassigned) [Compound 3], under setting [1], the AUC(0-inf) was 1.66 µM·h, the area under the curve AUC(0-t) was 1.56 µM·h, the Vd is 41.1 L/kg and the clearance was 50.8 mL/min/kg. Under setting [1], the half-life was 558 min. For the same compound, under setting [2], the area under the curve AUC(0-inf) is 1.18 µM·h, the AUC(0-t) was 1.15 µM·h, the concentration peaked (Cmax) at 439 nM and the Tmax stood at 35 min. Further, the half-life under setting [2] was 325 min. Under setting [3], the AUC(0-inf) was 13.3 µM·h, the area under the curve AUC(0-t) came out at 13.1 µM·h, the Cmax stood at 3110 nM and the time of peak concentration (Tmax) was determined as 75 min. This compound also showed a half-life under setting [3] of 254 min. For the same compound, where the note is “p.o. 100 mpk”, the F is reported as 24.0%.
